How the values were obtained:
benzodiazepine receptors [1] = experiment: Displacement of 3H-flunitrazepam binding in vitro (rat forebrain membrane suspension); conditions: 3H-flunitrazepam 1.0 nM, 0° C., 25 mM KH2PO4 pH 7.1, rat forebrain, 40-60 min
benzodiazepine receptors [2] = experiment: Inhibition of 3H-flunitrazepam binding to benzodiazepine receptors in living brain, in vivo; conditions: mice, usually subcutaneous; 3H-flunitrazepam i.v. 15 min later, killed after further 20 min; 50% reduction of specific binding
Protocol: The ED50 value represents the dose (mg/kg) of a test substance which causes the specific binding of flunitrazepam to benzodiazepine receptors in a living brain to be reduced to 50% of the control value. Such an in vivo test is carried out as follows:
Groups of mice are injected with the test substance at different doses and usually subcutaneously. 15 minutes later, ^3 H-flunitrazepam is given intravenously to the mice and after a further 20 minutes, the mice are killed, their […] by scintillation counting. The ED50 value is determined from dose-response curves.

SMILES	Inhibition of 3H-flunitrazepam-binding in vitro IC50 (benzodiazepine receptors [1]) [ng/mL]	Inhibition of 3H-flunitrazepam-binding in vivo ED50 (benzodiazepine receptors [2]) [mg/kg]
CCc1noc(-c2ncn3c2CN(C)C(=O)c2ccccc2-3)n1 [3-[5-(3-ethyl-1,2,4-oxadiazole)-yl]-5,6-dihydro-5-methyl-6-oxo-4H-imidazo[1,5-a][1,4]benzodiazepine]	12	2.2
CCc1noc(-c2ncn3c2CN(C)C(=O)c2cc(Cl)ccc2-3)n1 [8-chloro-5,6-dihydro-3-[5-(3-ethyl-1,2,4-oxadiazole)-yl]-5-methyl-6-oxo-4H-imidazo[1,5-a][1,4]benzodiazepine]	> 10	5.9
CCc1noc(-c2ncn3c2CN(C)C(=O)c2cc(F)ccc2-3)n1 [5,6-dihydro-3-[5-(3-ethyl-1,2,4-oxadiazole)-yl]-8-fluoro-5-methyl-6-oxo-4H-imidazo[1,5-a][1,4]benzodiazepine]	3.5	4.5
CCOC(=O)c1ncn2c1CN(C)C(=O)c1ccccc1-2 [ethyl-5,6-dihydro-5-methyl-6-oxo-4H--imidazo[1,5-a][1,4]benzodiazepine-3-carboxylate, reference compound]	–	> 30
CCOC(=O)c1ncn2c1CN(C)C(=O)c1cc(Cl)ccc1-2 [ethyl-8-chloro-5,6-dihydro-5-methyl-6-oxo-4H--imidazo[1,5-a][1,4]benzodiazepine-3-carboxylate, reference compound]	7.9	> 30
